This passage reports IC50 and melting point results from patent publication US8318949B2, “Organic compounds” (Novartis AG, priority 2008, dated 2012).

By IC50 is commonly meant the point on the concentration scale where inhibition reaches its midpoint. The melting point is the temperature, or range, at which the solid turns liquid.

SMILES strings stand for the structures.

In one series the target is T1, stearoyl-CoA desaturase (SCD1) (Mus musculus, UniProt P13516).
T1 construct: Male ICR outbread mice, on a high-carbohydrate, low fat diet; from tissue; host or cells: liver microsomes of male ICR mice on a high-carbohydrate, low fat diet
T1 sequence (P13516 1-355): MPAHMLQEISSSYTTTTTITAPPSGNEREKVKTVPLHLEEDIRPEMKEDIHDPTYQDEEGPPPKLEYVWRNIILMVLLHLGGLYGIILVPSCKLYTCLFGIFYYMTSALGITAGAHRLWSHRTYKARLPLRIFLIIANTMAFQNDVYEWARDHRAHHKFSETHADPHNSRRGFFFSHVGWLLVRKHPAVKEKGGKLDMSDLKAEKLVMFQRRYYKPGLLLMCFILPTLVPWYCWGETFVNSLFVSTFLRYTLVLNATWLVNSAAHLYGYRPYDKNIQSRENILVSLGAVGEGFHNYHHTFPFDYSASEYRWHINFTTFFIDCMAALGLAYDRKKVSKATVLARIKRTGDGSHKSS
Briefly: Stearoyl-CoA desaturase inhibition, mouse liver microsomes (release of 3H2O from [9,10-3H]stearoyl-CoA). In kind it is biochemical. The note with it: 15 min incubation, 25° C., read-out: Microsomal IC50. From the text:
The identification of compounds of the invention as SCD inhibitors was readily accomplished using the SCD enzyme and microsomal assay procedure described in Shanklin J. and Summerville C., Proc. Natl. Acad. Sci. USA (1991), Vol. 88, pp. 2510-2514.
Measuring Stearoyl-CoA Desaturase Inhibition Activity of a Test Compound Using Mouse Liver Microsomes
The identification of compounds of the invention as SCD inhibitors was readily accomplished using the SCD microsomal assay procedure described in Shanklin J. and Summerville C., Proc. Natl. Acad. Sci. USA (1991), Vol. 88, pp. 2510-2514.
Male ICR outbread mice, on a high-carbohydrate, low fat diet, under light halothane (15% in mineral oil) anesthesia are sacrificed by exsanguination during periods of high enzyme activity. Livers are immediately rinsed with cold 0.9% NaCl solution, weighed and minced with scissors. All procedures are performed at 4° C. unless specified otherwise. Livers are homogenized in a solution (1/3 w/v) containing 0.25 M sucrose, 62 mM potassium phosphate buffer (pH 7.0), 0.15 M KCl, 15 mM N-acetyleysteine, 5 mM MgCl2, and 0.1 mM EDTA using 4 strokes of a Potter-Elvehjem tissue homogenizer. The homogenate is centrifuged at 10,400×g for 20 min to eliminate mitochondria and cellular debris. The supernatant is filtered through a 3-layer cheesecloth and centrifuged at 105,000×g for 60 min. The microsomal pellet is gently resuspended in the same homogenization solution with a small glass/teflon homogenizer and stored at −70° C. The absence of mitochondrial contamination is enzymatically assessed. The protein concentration is measured using bovine serum albumin as the standard.
Desaturase activity is measured as the release of ^3H2O from [9,10-^3H]stearoyl-CoA. Reactions per assay point conditions are as follows: 2 μL 1.5 mM stearoyl-CoA, 0.25 μL 1 mCi/mL ^3H stearoyl CoA, 10 μL 20 mM NADH, 36.75 μL 0.1 M PK buffer (K2HPO4/NaH2PO4, pH 7.2). The test compound or control solution is added in a 1 μL volume. Reactions are started by adding 50 μL of microsomes (1.25 mg/mL). The plates are mixed and after 15 min incubation on a heating block (25° C.), the reactions are stopped by the addition of 10 μL 60% PCA. An aliquot of 100 μL is then transferred to a filter plate pretreated with charcoal and the plate centrifuged at 4000 rpm for 1 minute. The flow through containing the ^3H2O released by the SCD1 desaturation reaction is added to scintillation fluid and the radioactivity measured in a Packard TopCount. The data is analysed to identify the IC50 for test compounds and reference compounds.
The activity was defined in terms of % SCD enzyme activity remaining at the desired concentration of the test compound or as the IC50 concentration. The IC50 (affinity) of the example compounds toward the stearoyl-CoA desaturase is comprised between around […] and 0.0001 μM or between around 5 μM and 0.0001 μM or between around 1 μM and 0.0001 μM.
Take `Cc1nc(N2CCN(Cc3cc(Cl)cc(Cl)c3)C2=O)sc1C(=O)NCc1ccccn1` [Example 20-90, 2-(3-(3,5-dichlorobenzyl)-2-oxoimidazolidin-1-yl)-4-methyl-N-(pyridin-2-ylmethyl)thiazole-5-carboxamide]: the IC50 worked out at 8 nM.

On to `Cc1nc(-n2cnn(Cc3cc(F)cc(F)c3)c2=O)sc1C(=O)NCc1ccccn1` [Example 20-52, 2-(1-(3,5-difluorobenzyl)-5-oxo-1H-1,2,4-triazol-4(5H)-yl)-4-methyl-N-(pyridin-2-ylmethyl)-thiazole-5-carboxamide], for which the IC50 was 13 nM.

Consider `Cc1nc(-n2cnn(C(C)c3ccccc3)c2=O)sc1C(N)=O` (stereo not drawn) [Example 20-6, 4-methyl-2-(5-oxo-1-(1-phenylethyl)-1H-1,2,4-triazol-4(5H)-yl)thiazole-5-carboxamide], for which the IC50 is 80 nM.

In the case of `Cc1nc(-n2cnn(Cc3ccc(F)cc3)c2=O)sc1C(=O)NCc1ccc(C(F)(F)F)nc1` [Example 20-8, 2-(1-(4-fluorobenzyl)-5-oxo-1H-1,2,4-triazol-4(5H)-yl)-4-methyl-N-((6-(trifluoromethyl)pyridin-3-yl)methyl)thiazole-5-carboxamide], the IC50 worked out at 1720 nM.

For the compound `Cc1nc(-n2cnn(CC3CC3(F)F)c2=O)sc1C(=O)NCc1cncs1` (stereo not drawn) [Example 20-12, 2-(1-((2,2-difluorocyclopropyl)methyl)-5-oxo-1H-1,2,4-triazol-4(5H)-yl)-4-methyl-N-(thiazol-5-ylmethyl)thiazole-5-carboxamide], the IC50 came to 18 nM.

`Cc1nc(N2CCN(Cc3ccc(C(F)(F)F)cc3)C2=O)sc1C(=O)NCc1ccc2nccn2c1` [Example 20-22, N-(imidazo[1,2-a]pyridin-6-ylmethyl)-4-methyl-2-(2-oxo-3-(4-(trifluoromethyl)-benzyl)imidazolidin-1-yl)-thiazole-5-carboxamide]: the IC50 was determined as 709 nM.

Turning to `Cc1nc(-c2sc(N3CCN(Cc4ccc(OC(F)(F)F)cc4)C3=O)nc2C)n[nH]1` [Example 20-57, 1-(4-methyl-5-(5-methyl-1H-1,2,4-triazol-3-yl)thiazol-2-yl)-3-(4-(trifluoromethoxy)-benzyl)imidazolidin-2-one], the half-maximal inhibitory concentration (IC50) was 119 nM.

Turning to `Cc1nc(N2CCN(CCC3CC3)C2=O)sc1C(=O)NCc1ccccn1` [Example 20-103, 2-(3-(2-cyclopropylethyl)-2-oxoimidazolidin-1-yl)-4-methyl-N-(pyridin-2-ylmethyl)thiazole-5-carboxamide], the IC50 turned out to be 38 nM.

`Cc1nc(-n2cnn(CC3CC3(F)F)c2=O)sc1C(=O)NCc1cnn(C)c1` (stereo not drawn) [Example 20-76, 2-(1-((2,2-difluorocyclopropyl)methyl)-5-oxo-1H-1,2,4-triazol-4(5H)-yl)-4-methyl-N-((1-methyl-1H-pyrazol-4-yl)methyl)thiazole-5-carboxamide]: the IC50 came out at 551 nM.

With `Cc1nc(N2C(=O)N(Cc3ccc(F)cc3)C3CC32)sc1C(=O)NCc1cccnc1` (stereo not drawn) [Example 19, 2-(4-(4-fluorobenzyl)-3-oxo-2,4-diazabicyclo[3.1.0]hexan-2-yl)-4-methyl-N-(pyridin-3-ylmethyl)thiazole-5-carboxamide], the IC50 was 1210 nM.

For `Cc1cc(CNC(=O)c2sc(N3CCN(CC4CC4)C3=O)nc2C)no1` [Example 20-83, 2-(3-(cyclopropylmethyl)-2-oxoimidazolidin-1-yl)-4-methyl-N-((5-methylisoxazol-3-yl)methyl)thiazole-5-carboxamide], the IC50 was found to be 11 nM.

For the compound `Cc1nc(N2CCN(Cc3cccc(F)c3)C2=O)sc1C(N)=O` [Example 20-24, 2-(3-(3-fluorobenzyl)-2-oxoimidazolidin-1-yl)-4-methylthiazole-5-carboxamide], the IC50 was 40 nM.

Take `Cc1nc(-n2cnn(C(C)c3ccccc3)c2=O)sc1C(=O)NCc1cccnc1` (stereo not drawn) [Example 20-5, 4-methyl-2-(5-oxo-1-(1-phenylethyl)-1H-1,2,4-triazol-4(5H)-yl)-N-(pyridin-3-ylmethyl)thiazole-5-carboxamide]: the IC50 is 98 nM.

For the compound `Cc1nc(-n2cnn(C(C)c3ccccc3)c2=O)sc1C(=O)NCc1csc(C(F)(F)F)n1` (stereo not drawn) [Example 20-17, 4-methyl-2-(5-oxo-1-(1-phenylethyl)-1H-1,2,4-triazol-4(5H)-yl)-N-((2-(trifluoromethyl)-thiazol-4-yl)-methyl)thiazole-5-carboxamide], the IC50 is 208 nM.

System in a further series: not given
Test: not given
Settings: not given
With `C=CCCN1CCN(c2nc(C)c(C(=O)NCc3cccnc3)s2)C1=O` [Example 2.4, 2-(3-(but-3-enyl)-2-oxoimidazolidin-1-yl)-4-methyl-N-(pyridin-3-ylmethyl)thiazole-5-carboxamide], the melting point fell in the range of 144 to 145 °C.

In turn, `Cc1cc(CNC(=O)c2sc(N3C[C@@H](C)N(Cc4cc(F)cc(F)c4)C3=O)nc2C)no1` [Example 2.14, (R)-2-(3-(3,5-difluorobenzyl)-4-methyl-2-oxoimidazolidin-1-yl)-4-methyl-N-((5-methylisoxazol-3-yl)methyl)thiazole-5-carboxamide] yielded a melting point of 63 to 66 °C.

`Cc1nc(N2CCN(Cc3ccc(C(F)(F)F)cc3)C2=O)sc1C(N)=O` [Example 1.2, 4-methyl-2-{2-oxo-3-[4-(trifluoromethyl)benzyl]imidazolidin-1-yl}thiazole-5-carboxamide] came in with a melting point of 216 to 217 °C.

In turn, `Cc1nc(N2C(=O)N(Cc3ccc(F)cc3)C[C@@H]2C)sc1C(=O)NCc1ccccn1` [Example 2.15, (S)-2-(3-(4-fluorobenzyl)-5-methyl-2-oxoimidazolidin-1-yl)-4-methyl-N-(pyridin-2-ylmethyl)thiazole-5-carboxamide] had a melting point of 112 to 113 °C.

On to `Cc1nc(N2C[C@@H](C)N(Cc3cc(F)cc(F)c3)C2=O)sc1C(=O)NCc1ccccn1` [Example 2.12, (R)-2-(3-(3,5-difluorobenzyl)-4-methyl-2-oxoimidazolidin-1-yl)-4-methyl-N-(pyridin-2-ylmethyl)thiazole-5-carboxamide], for which the melting point fell in the range of 147 to 148 °C.

`Cc1nc(N2CCN(CC(C)C)C2=O)sc1C(N)=O` [Example 1.6, 2-(3-isobutyl-2-oxoimidazolidin-1-yl)-4-methylthiazole-5-carboxamide]: the melting point was in the range of 212 to 215 °C.

The compound `Cc1nc(N2CCN(Cc3ccc(Cl)cc3)C2=O)sc1C(N)=O` [Example 1.13, 2-(3-(4-chlorobenzyl)-2-oxoimidazolidin-1-yl)-4-methylthiazole-5-carboxamide] registered a melting point of more than 200 °C.

`Cc1cnc(CNC(=O)c2sc(N3C[C@@H](C)N(Cc4cc(F)cc(F)c4)C3=O)nc2C)cn1` [Example 2.13, (R)-2-(3-(3,5-difluorobenzyl)-4-methyl-2-oxoimidazolidin-1-yl)-4-methyl-N-((5-methylpyrazin-2-yl)methyl)thiazole-5-carboxamide] returned a melting point of 131 to 132 °C.

In the case of `Cc1cc(CNC(=O)c2sc(-n3cnn(Cc4ccc(F)cc4)c3=O)nc2C)[nH]n1` [Example 2.3, 2-(1-(4-Fluorobenzyl)-5-oxo-1H-1,2,4-triazol-4(5H)-yl)-4-methyl-N-((3-methyl-1H-pyrazol-5-yl)methyl)thiazole-5-carboxamide], the melting point lay within 234 to 235 °C.

The compound `Cc1nc(N2C[C@@H](C)N(Cc3ccc(C(F)(F)F)cc3)C2=O)sc1C(=O)NCc1ccccn1` [Example 2.20, (R)-4-methyl-2-(4-methyl-2-oxo-3-(4-(trifluoromethyl)benzyl)imidazolidin-1-yl)-N-(pyridin-2-ylmethyl)thiazole-5-carboxamide] displayed a melting point of 136 to 137 °C.
